Where two headings read alike, the source gives them in different places.
Assays:
[1] = non-iron-overloaded rats, mean ± SEM, cited from earlier work
[2] = Iron clearing efficiency in non-iron-overloaded, bile duct-cannulated rats (dose response po; po versus sc); assay type: in vivo, male Sprague-Dawley rats; conditions: mean ± SEM
Method: Cebus apella monkeys were obtained from World Wide Primates (Miami, Fla.). Male Sprague-Dawley rats were procured from Harlan Sprague-Dawley (Indianapolis, Ind.). Ultrapure salts were obtained from Johnson Matthey Electronics (Royston, UK). All hematological and biochemical studies were performed by Antech Diagnostics (Tampa, Fla.).
Cannulation of Bile Duct in Non-Iron-Overloaded Rats. The cannulation has been described previously in Bergeron, R J et al., Blood 1993, 81, 2166-2173 and Bergeron, R J et al., Ann. N.Y Acad.Sci. 1990, 612, 378-393. Bile samples were collected from male Sprague—Dawley rats (400-450 g) at 3 h intervals for 24 h. The urine sample was taken at 24 h. Sample collection and handling are as previously described. 57'58
Drug Preparation and Administration. In the iron clearing experiments the rats were given a single 50, 150, or 300 mol/kg dose of the drugs po and/or sc. The compounds were administered as a solution in water, 300 mol/kg dose only or (2) as the monosodium salt of the compound of interest (prepared by addition of the free acid to 1 equivalent of NaOH). The chelators were given to the monkeys po and sc at a dose of 150 tmol/kg. The drugs were prepared as for the rats; 2 was given po and sc as a solution in water.
Calculation of Iron Chelator Efficiency. ICE is calculated by dividing the actual amount of iron cleared by a given compound by the theoretical amount that should be cleared. The theoretical iron outputs of the chelators were generated on the basis of a 2:1 ligand:iron complex. The efficiencies in the rats and monkeys were calculated as set forth in Bergeron, R J et al., J. Med. Chem. 1999, 42, 2432-2440. Data are presented as the mean+the standard error of the mean; p-values were generated via a one-tailed Student's 1-test in which the inequality of variances was assumed; and a p-value of <0.05 was considered significant.
Chelator-Induced Iron Clearance and Iron Clearing Efficiency in Non-Iron-Overloaded Rodents Dose Response Studies. Because there is a limited amount of chelatable iron available in an animal at any given time, the iron clearance, and therefore iron-clearing efficiency of a ligand, is saturable. The key to managing this phenomenon can be found in the ferrokinetics and the dose-response properties of the ligand. In this regard, the dose-response along with the corresponding ferrokinetics of each compound given po were evaluated in the non-iron-overloaded, bile duct-cannulated rodent model.
Iron-Clearing Efficiency in Non-Iron-Overloaded Rodents and Iron-Loaded Primates: Oral versus Subcutaneous Administration. A similar protocol was carried out to confirm consistence of results and compare the effects of the compounds across species. Cebus apella monkeys and male Sprague-Dawley rats were used, 3-8 per group.

[3] = iron-loaded Cebus apella, mean ± SEM, cited from earlier work
[4] = Approximate solubility (aliquots of solvent, visual inspection); assay type: physicochemical
Method: Weighed samples were treated with aliquots of test solvents at room temperature. Samples were typically sonicated between additions to facilitate dissolution. Complete dissolution of the test material in each solvent was determined by visual inspection. Solubility was estimated based on the total volume of solvent used to provide complete dissolution. The actual solubility may be greater than the value calculated due to the incremental addition of solvent and kinetics of dissolution of the material. […] The solubility is expressed as […] if dissolution occurred after the addition of first aliquot.
Approximate solubilities are calculated based on the total solvent used to give a solution based on visual inspection. Small aliquots of solvent are added to a weighed sample with agitation. Actual solubilities may be greater because of the volume of the solvent portions utilized or a slow rate of dissolution. Solubilities are reported to the nearest mg/mL. Simulated gastric fluid (SGF) was prepared according to the 2008 USP vol. 1, p 817 except without pepsin.
Approximate solubilities are calculated based on the total solvent used to give a solution based on visual inspection. Small aliquots of solvent are added to a weighed sample with agitation. Actual solubilities may be greater because of the volume of the solvent portions utilized or a slow rate of dissolution.

[5] = Relative humidity stress / physical stability on exposure and storage; assay type: physicochemical
Source text: Following isolation, salts were then characterized by one or more standard techniques including but not limited to x-ray powder diffraction (XRPD), single crystal x-ray diffraction (SC-XRD or XRD), nuclear magnetic resonance (NMR), solubility analysis, and stability testing by moisture sorption/desorption stress analysis and differential scanning calorimetry (DSC).

[6] = Moisture sorption/desorption (DVS) analysis; assay type: physicochemical
Method: Moisture sorption/desorption (DVS) data were collected on a VTI SGA-100 Vapor Sorption Analyzer. Sorption and desorption data were collected over a range of 5% to 95% relative humidity (RH) at 10% RH intervals under a nitrogen purge. Samples were not dried prior to analysis. Equilibrium criteria used for analysis were less than 0.0100% weight change in 5 minutes, with a maximum equilibration time of 3 hours if the weight criterion was not met. Data were not corrected for the initial moisture content of the samples. NaCl and PVP were used as calibration standards.

| SMILES | Rodent ICE @ 300 μmol/kg ([1]; po) [%] | Rodent ICE @ 300 μmol/kg ([1]; sc) [%] | Iron-Clearing Efficiency (%) ([2]; dose 50 μmol/kg) | Iron-Clearing Efficiency (%) ([2]; dose 150 μmol/kg) | Iron-Clearing Efficiency (%) ([2]; dose 300 μmol/kg) | Primate ICE @ 150 μmol/kg ([3]; po) [%] | Primate ICE @ 150 μmol/kg ([3]; sc) [%] | other results |
| --- | --- | --- | --- | --- | --- | --- | --- | --- |
| COCCOCCOCCOc1cccc(C2=N[C@@](C)(C(=O)O)CS2)c1O [(S)-3′-HO-DADFT, (S)-4,5-dihydro-2-[2-hydroxy-3-(3,6,9-trioxadecyloxy)phenyl]-4-methyl-4-thiazolecarboxylic acid] | 10.6 ± 4.4 | 13.4 ± 4.5 | 20.7 ± 4.4 | 18.7 ± 2.9% | 10.6 ± 4.4 | 23.0 ± 4.1 | 21.5 ± 3.2 |  |
| C[C@]1(C(=O)O)CSC(c2ccc(O)cc2O)=N1 [(S)-4′-HO-DADFT] | 5.5 ± 1.9 | 8.7 ± 2.6 | 21.7 ± 3.5 | 11.2 ± 4.2% | 5.5 ± 1.9 |  | 30.4 ± 7.2 |  |
| C[C@]1(C(=O)O)CSC(c2ccc(O)cc2O)=N1 [Deferitrin, (S)-2-(2,4-dihydroxyphenyl)-4,5dihydro-4-methyl-4-thiazolecarboxylic acid, reference compound] | 1.1 ± 0.8 | 1.1 ± 0.6 |  | 1.5 + 1.7% | 1.1 ± 0.8 | 16.8 ± 7.2 | 15.9 ± 2.7 |  |
| COCCOCCOCCOc1cccc(C2=N[C@@](C)(C(=O)[O-])CS2)c1O.[K+] [potassium salt Form A, potassium (S)-3′-desazadesferrithiocin polyether] |  |  |  |  |  |  |  | Approximate Solubility ([4]; ACN, Table 14): >6 mg/mL; Approximate Solubility ([4]; EtOAc/H2O, Table 14): >70 mg/mL; Approximate Solubility ([4]; IPA, Table 14): >68 mg/mL; Approximate Solubility ([4]; MEK, Table 14): <7 mg/mL; Approximate Solubility ([4]; SGF (simulated gastric fluid, without pepsin), Table 14): ≧230 mg/mL; Approximate Solubility ([4]; THF, Table 14): ~ 5 mg/mL; Approximate Solubility ([4]; Water, salts of (S)-3′-(OH)-DADFT-PE (Table 14)): ≧48 mg/mL; aqueous solubility ([4]; water, salts of (S)-3′-(OH)-DADFT-PE): ≥ 48 mg/mL; form obtained on exposure to 53% RH ([5]; 53% RH for 11 days at room temperature): Form B; physical change when exposed to 75% RH ([5]; 75% RH for 3 days): Complete deliquesce; weight loss during desorption ([6]; desorption step, 95% to 5% RH): 63.4%; hygroscopicity (in words) ([6]; from DVS data): extremely hygroscopic; average percentage weight loss at plateau of absorption curve ([6]; plateau between 45 and 65% RH): 8.7%; weight gain during sorption ([6]; sorption step from 5% to 95% RH): 67.7% |

From patent publication US8829197B2, “Salts and polymorphs of desazadesferrithiocin polyether analogues as metal chelation agents” (FerroKin Biosciences, Inc., priority 2008, dated 2014)
